Legend:
[1] = system: rice; test: Test B flood test rice; type: in vivo, Oryza sativa
Summary of the method: (§1)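 Read-out is a visual response score from 0 (no effect) to 10 (complete control), assigned by comparison with untreated controls. Treatment was applied at the 2-leaf stage, and plants stayed in the greenhouse for twelve to sixteen days before scoring.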

[2] = system: bedstraw; test: Test B pre/postemergence bedstraw; type: in vivo, Galium aparine
Summary of the method: (§2)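 Herbicidal effect was estimated by eye on a ten-point control scale after plants spent twelve to sixteen days in a greenhouse following soil or foliar treatment. Foliar sprays targeted plants at one to four leaves; all doses were formulated in a non-phytotoxic solvent with surfactant.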

[3] = system: velvetleaf; test: Test B pre/postemergence velvetleaf; type: in vivo, Abutilon theophrasti
Summary of the method: as §2

[4] = system: bamyardgrass; test: Test B flood test barnyardgrass; type: in vivo, Echinochloa crus-galli
Summary of the method: as §1

[5] = system: soybean; test: Test B pre/postemergence soybean; type: in vivo, Glycine max
Summary of the method: as §2

[6] = system: wheat; test: Test B pre/postemergence wheat; type: in vivo, Triticum aestivum
Summary of the method: as §2

[7] = system: crabgrass; test: Test B pre/postemergence crabgrass; type: in vivo, Digitaria sanguinalis
Summary of the method: as §2

[8] = system: giant foxtail; test: Test B pre/postemergence giant foxtail; type: in vivo, Setaria faberii
Summary of the method: as §2

[9] = system: pigweed; test: Test B pre/postemergence pigweed; type: in vivo, Amaranthus retroflexus
Summary of the method: as §2

[10] = system: smallflower flatsedge; test: Test B flood test smallflower flatsedge; type: in vivo, Cyperus difformis
Summary of the method: as §1

[11] = system: surinam grass; test: Test B pre/postemergence surinam grass; type: in vivo, Brachiaria decumbens
Summary of the method: as §2

[12] = system: duck salad; test: Test B flood test duck salad; type: in vivo, Heteranthera limosa
Summary of the method: as §1

[13] = system: cocklebur; test: Test B pre/postemergence cocklebur; type: in vivo, Xanthium strumarium
Summary of the method: as §2

[14] = system: sugar beet; test: Test B pre/postemergence sugar beet; type: in vivo, Beta vulgaris
Summary of the method: as §2

[15] = system: morningglory; test: Test B pre/postemergence morningglory; type: in vivo, Ipomoea hederacea
Summary of the method: as §2

[16] = system: blackgrass; test: Test B pre/postemergence blackgrass; type: in vivo, Alopecurus myosuroides
Summary of the method: as §2

[17] = system: purple nutsedge; test: Test B pre/postemergence purple nutsedge; type: in vivo, Cyperus rotundus
Summary of the method: as §2

[18] = system: rape; test: Test B pre/postemergence rape; type: in vivo, Brassica napus
Summary of the method: as §2

[19] = system: wild oat; test: Test B pre/postemergence wild oat; type: in vivo, Avena fatua
Summary of the method: as §2

[20] = system: corn; test: Test B pre/postemergence corn; type: in vivo, Zea mays
Summary of the method: as §2

[21] = Rate 62 g/ha, headed Pre-emergence (flood test species), scale 0 to 10 (0 no effect, 10 complete control)
[22] = Rate 125 g/ha, Pre-emergence, flood test species, scale 0 to 10 where 0 is no effect and 10 is complete control
[23] = Rate 250 g/ha, Pre-emergence, flood-test species, scale 0 to 10, 0 is no effect, 10 is complete control
[24] = Rate 500 g/ha, Pre-emergence, flood test species, scale 0 to 10 (0 no effect, 10 complete control)
[25] = Preemergence, Rate 62 g/ha, scale of 0 to 10 where 0 is no effect and 10 is complete control
[26] = Preemergence, Rate 250 g/ha, scale of 0 to 10 where 0 is no effect and 10 is complete control
[27] = Preemergence, Rate 500 g/ha, scale of 0 to 10 where 0 is no effect and 10 is complete control
[28] = Rate 62 g/ha, Postemergence, scale of 0 to 10 where 0 is no effect and 10 is complete control
[29] = Rate 125 g/ha, Postemergence, scale 0 to 10
[30] = Rate 125 g/ha, Preemergence, scale of 0 to 10 where 0 is no effect and 10 is complete control
[31] = Rate 500 g/ha, Postemergence, scale 0 to 10, 0 no effect, 10 complete control

CCCCCC#CCn1c(=O)on(C(=O)N(c2ccc(F)cc2)C(C)C)c1=O [Compound 254]
Rice plant response rating [1, 21]: 0
Rice plant response rating [1, 22]: 0
Rice plant response rating [1, 23]: 0
Rice plant response rating [1, 24]: 0
Bedstraw plant response rating [2, 25]: 0
Bedstraw plant response rating [2, 26]: 0
Plant response rating, Bedstraw [2, 27]: 0
Bedstraw plant response rating [2, 28]: 0
Bedstraw plant response rating [2, 29]: 4
Bedstraw plant response rating [2, 30]: 0
Plant response rating (0 to 10; 0 is no effect, 10 is complete control), Bedstraw ([2]; Rate 250 g/ha, Postemergence): 4
Bedstraw plant response rating [2, 31]: 4
Velvetleaf plant response rating [3, 25]: 0
Velvetleaf plant response rating [3, 26]: 0
Plant response rating, Velvetleaf [3, 27]: 0
Velvetleaf plant response rating [3, 30]: 0
Velvetleaf plant response rating [3, 31]: 2
Barnyardgrass plant response rating [4, 21]: 0
Barnyardgrass plant response rating [4, 22]: 0
Barnyardgrass plant response rating [4, 23]: 0
Barnyardgrass plant response rating [4, 24]: 0
Soybean plant response rating [5, 25]: 0
Soybean plant response rating [5, 26]: 0
Plant response rating, Soybean [5, 27]: 0
Soybean plant response rating [5, 30]: 0
Soybean plant response rating [5, 31]: 2
Wheat plant response rating [6, 25]: 0
Wheat plant response rating [6, 26]: 0
Plant response rating, Wheat [6, 27]: 0
Wheat plant response rating [6, 30]: 0
Wheat plant response rating [6, 31]: 0
Crabgrass plant response rating [7, 25]: 0
Crabgrass plant response rating [7, 26]: 0
Plant response rating, Crabgrass [7, 27]: 3
Crabgrass plant response rating [7, 30]: 0
Plant response rating (0 to 10; 0 is no effect, 10 is complete control), Crabgrass ([7]; Rate 250 g/ha, Postemergence): 0
Crabgrass plant response rating [7, 31]: 0
Giant foxtail plant response rating [8, 25]: 0
Giant foxtail plant response rating [8, 26]: 6
Plant response rating, Giant foxtail [8, 27]: 10
Giant foxtail plant response rating [8, 30]: 3
Plant response rating (0 to 10; 0 is no effect, 10 is complete control), Giant foxtail ([8]; Rate 250 g/ha, Postemergence): 0
Giant foxtail plant response rating [8, 31]: 0
Redroot pigweed plant response rating [9, 25]: 0
Redroot pigweed plant response rating [9, 26]: 0
Plant response rating, Redroot pigweed [9, 27]: 0
Redroot pigweed plant response rating [9, 30]: 0
Plant response rating (0 to 10; 0 is no effect, 10 is complete control), Redroot pigweed ([9]; Rate 250 g/ha, Postemergence): 3
Redroot pigweed plant response rating [9, 31]: 6
S. Flatsedge plant response rating [10, 21]: 0
S. Flatsedge plant response rating [10, 22]: 0
S. Flatsedge plant response rating [10, 23]: 0
S. Flatsedge plant response rating [10, 24]: 0
B. signalgrass plant response rating [11, 25]: 0
B. signalgrass plant response rating [11, 26]: 0
Plant response rating, B. signalgrass [11, 27]: 0
B. signalgrass plant response rating [11, 28]: 0
B. signalgrass plant response rating ([11]; Rate 125 g/ha, Postemergence, scale 0 (no effect) to 10 (complete control)): 0
B. signalgrass plant response rating [11, 30]: 0
Plant response rating (0 to 10; 0 is no effect, 10 is complete control), B. signalgrass ([11]; Rate 250 g/ha, Postemergence): 0
B. signalgrass plant response rating [11, 31]: 0
Ducksalad plant response rating [12, 21]: 0
Ducksalad plant response rating [12, 22]: 0
Ducksalad plant response rating [12, 23]: 0
Ducksalad plant response rating [12, 24]: 0
Cocklebur plant response rating [13, 25]: 0
Cocklebur plant response rating [13, 26]: 0
Plant response rating, Cocklebur [13, 27]: 0
Cocklebur plant response rating [13, 28]: 0
Cocklebur plant response rating [13, 29]: 0
Cocklebur plant response rating [13, 30]: 0
Plant response rating (0 to 10; 0 is no effect, 10 is complete control), Cocklebur ([13]; Rate 250 g/ha, Postemergence): 0
Cocklebur plant response rating [13, 31]: 0
Sugarbeets plant response rating [14, 25]: 0
Sugarbeets plant response rating [14, 26]: 2
Plant response rating, Sugarbeets [14, 27]: 6
Sugarbeets plant response rating [14, 30]: 2
Sugarbeets plant response rating [14, 31]: 7
Morningglory plant response rating [15, 25]: 0
Morningglory plant response rating [15, 26]: 0
Plant response rating, Morningglory [15, 27]: 0
Morningglory plant response rating [15, 30]: 0
Plant response rating (0 to 10; 0 is no effect, 10 is complete control), Morningglory ([15]; Rate 250 g/ha, Postemergence): 9
Morningglory plant response rating [15, 31]: 9
Blackgrass plant response rating [16, 25]: 0
Blackgrass plant response rating [16, 26]: 0
Plant response rating, Blackgrass [16, 27]: 4
Blackgrass plant response rating [16, 28]: 0
Blackgrass plant response rating [16, 29]: 0
Blackgrass plant response rating [16, 30]: 0
Plant response rating (0 to 10; 0 is no effect, 10 is complete control), Blackgrass ([16]; Rate 250 g/ha, Postemergence): 0
Blackgrass plant response rating [16, 31]: 0
Nutsedge plant response rating [17, 25]: 0
Nutsedge plant response rating [17, 26]: 0
Plant response rating, Nutsedge [17, 27]: 0
Nutsedge plant response rating [17, 30]: 0
Plant response rating (0 to 10; 0 is no effect, 10 is complete control), Nutsedge ([17]; Rate 250 g/ha, Postemergence): 0
Nutsedge plant response rating [17, 31]: 0
Rape plant response rating [18, 25]: 0
Rape plant response rating [18, 26]: 2
Plant response rating, Rape [18, 27]: 6
Rape plant response rating [18, 30]: 0
Plant response rating (0 to 10; 0 is no effect, 10 is complete control), Rape ([18]; Rate 250 g/ha, Postemergence): 2
Rape plant response rating [18, 31]: 2
Wild oats plant response rating [19, 25]: 0
Wild oats plant response rating [19, 26]: 0
Plant response rating, Wild oats [19, 27]: 2
Wild oats plant response rating [19, 30]: 0
Wild oats plant response rating [19, 31]: 0
Corn plant response rating [20, 25]: 0
Corn plant response rating [20, 26]: 0
Plant response rating, Corn [20, 27]: 0
Corn plant response rating [20, 28]: 0
Corn plant response rating [20, 29]: 0
Corn plant response rating [20, 30]: 0
Plant response rating (0 to 10; 0 is no effect, 10 is complete control), Corn ([20]; Rate 250 g/ha, Postemergence): 0
Corn plant response rating [20, 31]: 0

From US6737383B1, “Herbicidal oxadiazolidines” (priority 1999, dated 2004)
